Assay results taken from patent US20260285850A1, “SUBSTITUTED OXAZOLIDINONES AND IMIDAZOLINONES AS HERBICIDES” (FMC CORPORATION, priority 2023, published 2026).

Experiments:
Format in all cases: in vivo
[1] = system: blackgrass (Alopecurus myosuroides); assay: Test A postemergence application, visual injury rating 0-100
In short: (§1)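 Visual injury, scored 0-100 (100 = complete control) against untreated plants, 10 days after greenhouse treatment. Test chemicals in surfactant-containing non-phytotoxic solvent were applied in loam soil and sand, as a preemergence soil spray on seeds or postemergence to plants at the one- to two-leaf stage.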

kochia (Bassia scoparia) [2] = assay: as above
In short: as §1

[3] = system: ragweed (common ragweed, Ambrosia artemisiifolia); assay: as above
In short: as §1

[4] = system: palmer (palmer amaranth, palmer pigweed, Amaranthus palmeri); assay: as above
In short: as §1

[5] = system: oat, wild (wild oat, Avena fatua); assay: as above
In short: as §1

[6] = system: green foxtail (Setaria viridis); assay: as above
In short: as §1

corn (Zea mays) [7] = assay: as above
In short: as §1

[8] = system: barnyardgrass (Echinochloa crus-galli); assay: as above
In short: as §1

[9] = system: horseweed (Erigeron canadensis); assay: as above
In short: as §1

soybean (Glycine max) [10] = assay: as above
In short: as §1

[11] = system: galium (catchweed bedstraw, Galium aparine); assay: as above
In short: as §1

[12] = system: ryegrass, Italian (italian ryegrass, Lolium multiflorum); assay: as above
In short: as §1

[13] = system: wheat (Triticum aestivum); assay: as above
In short: as §1

[14] = system: ducksalad (Heteranthera limosa); assay: Test B flooded paddy test, visual plant response rating 0-100; conditions: 250 g ai/ha, Flood, applied to paddy water, evaluated after 13 days
In short: (§2)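 Visual scores versus untreated controls were recorded 13 days after treatment of greenhouse-held plants. At the 2-leaf stage, pots were flooded 3 cm above the soil surface and compounds added straight to the water.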

rice (Oryza sativa) = assay: as above; conditions: 250 g ai/ha, Flood, applied to paddy water, evaluated after 13 days
In short: as §2

[15] = system: barnyardgrass (Echinochloa crusgalli); assay: as above; conditions: 250 g ai/ha, Flood, applied to paddy water, evaluated after 13 days
In short: as §2

[16] = system: sedge, umbrella (small-flower umbrella sedge, Cyperus difformis); assay: as above; conditions: 250 g ai/ha, Flood, applied to paddy water, evaluated after 13 days
In short: as §2

[17] = system: blackgrass (Alopecurus myosuroides); assay: Test A preemergence soil spray, visual injury rating 0-100; conditions: 10 days
In short: as §1

kochia (Bassia scoparia) [18] = assay: as above; conditions: 10 days
In short: as §1

[19] = system: ragweed (common ragweed, Ambrosia artemisiifolia); assay: as above; conditions: 10 days
In short: as §1

[20] = system: palmer (palmer amaranth, palmer pigweed, Amaranthus palmeri); assay: as above; conditions: 10 days
In short: as §1

[21] = system: oat, wild (wild oat, Avena fatua); assay: as above; conditions: 10 days
In short: as §1

[22] = system: green foxtail (Setaria viridis); assay: as above; conditions: 10 days
In short: as §1

corn (Zea mays) [23] = assay: as above; conditions: 10 days
In short: as §1

[24] = system: barnyardgrass (Echinochloa crus-galli); assay: as above; conditions: 10 days
In short: as §1

soybean (Glycine max) [25] = assay: as above; conditions: 10 days
In short: as §1

[26] = system: ryegrass, Italian (italian ryegrass, Lolium multiflorum); assay: as above; conditions: 10 days
In short: as §1

[27] = system: wheat (Triticum aestivum); assay: as above; conditions: 10 days
In short: as §1

[28] = 62 g ai/ha, postemergence, 10 days, 0 = no effect, 100 = complete control
[29] = Postemergence, 16 g ai/ha, greenhouse 10 days, 0 no effect, 100 complete control
[30] = 62 g ai/ha, 0 = no effect, 100 = complete control

CC1(C(=O)NC2CC(C(=O)OCC(F)(F)F)C2)CN(c2cc(F)cc(F)c2)C(=O)O1 (stereo not shown) [Compound 121]
Blackgrass plant response rating (0-100) [1, 28]: 100 | Blackgrass plant response rating (0 to 100 scale) [1, 29]: 90 | Kochia plant response rating (0-100) (kochia (Bassia scoparia) [2]; [28]): 70 | Kochia plant response rating (0 to 100 scale) (kochia (Bassia scoparia) [2]; [29]): 10 | Ragweed plant response rating (0-100) [3, 28]: 0 | Ragweed plant response rating (0 to 100 scale) [3, 29]: 0 | Pigweed, Palmer plant response rating (0-100) [4, 28]: 70 | Pigweed, Palmer plant response rating (0 to 100 scale) [4, 29]: 0 | Oat, Wild plant response rating (0-100) [5, 28]: 90 | Oat, Wild plant response rating (0 to 100 scale) [5, 29]: 40 | Foxtail, Green plant response rating (0-100) [6, 28]: 90 | Foxtail, Green plant response rating (0 to 100 scale) [6, 29]: 70 | Corn plant response rating (0-100) (corn (Zea mays) [7]; [28]): 100 | Corn plant response rating (0 to 100 scale) (corn (Zea mays) [7]; [29]): 100 | Barnyardgrass plant response rating (0-100) [8, 28]: 100 | Barnyardgrass plant response rating (0 to 100 scale) [8, 29]: 60 | Horseweed plant response rating (0-100) [9, 28]: 10 | Horseweed plant response rating (0 to 100 scale) [9, 29]: 0 | Soybean plant response rating (0-100) (soybean (Glycine max) [10]; [28]): 70 | Soybean plant response rating (0 to 100 scale) (soybean (Glycine max) [10]; [29]): 50 | Galium plant response rating (0-100) [11, 28]: 60 | Galium plant response rating (0 to 100 scale) [11, 29]: 30 | Ryegrass, Italian plant response rating (0-100) [12, 28]: 70 | Ryegrass, Italian plant response rating (0 to 100 scale) [12, 29]: 20 | Wheat plant response rating (0-100) [13, 28]: 90 | Wheat plant response rating (0 to 100 scale) [13, 29]: 90 | Plant response rating, Ducksalad (0 to 100 scale, 0 is no effect and 100 is complete control) [14]: 0 | Plant response rating, Rice (0 to 100 scale, 0 is no effect and 100 is complete control) (rice (Oryza sativa)): 0 | Plant response rating, Barnyardgrass (0 to 100 scale, 0 is no effect and 100 is complete control) [15]: 0 | Plant response rating, Sedge, Umbrella (0 to 100 scale, 0 is no effect and 100 is complete control) [16]: 0 | Blackgrass plant response rating ([17]; 16 g ai/ha, 0 to 100 scale): 50 | Blackgrass plant response rating (0-100) [17, 30]: 90 | Kochia plant response rating (kochia (Bassia scoparia) [18]; 16 g ai/ha, 0 to 100 scale): 0 | Kochia plant response rating (0-100) (kochia (Bassia scoparia) [18]; [30]): 70 | Ragweed plant response rating ([19]; 16 g ai/ha, 0 to 100 scale): 0 | Ragweed plant response rating (0-100) [19, 30]: 0 | Pigweed, Palmer plant response rating ([20]; 16 g ai/ha, 0 to 100 scale): 0 | Pigweed, Palmer plant response rating (0-100) [20, 30]: 70 | Oat, Wild plant response rating ([21]; 16 g ai/ha, 0 to 100 scale): 90 | Oat, Wild plant response rating (0-100) [21, 30]: 90 | Foxtail, Green plant response rating ([22]; 16 g ai/ha, 0 to 100 scale): 0 | Foxtail, Green plant response rating (0-100) [22, 30]: 90 | Corn plant response rating (corn (Zea mays) [23]; 16 g ai/ha, 0 to 100 scale): 20 | Corn plant response rating (0-100) (corn (Zea mays) [23]; [30]): 90 | Barnyardgrass plant response rating ([24]; 16 g ai/ha, 0 to 100 scale): 0 | Barnyardgrass plant response rating (0-100) [24, 30]: 80 | Soybean plant response rating (soybean (Glycine max) [25]; 16 g ai/ha, 0 to 100 scale): 0 | Soybean plant response rating (0-100) (soybean (Glycine max) [25]; [30]): 0 | Ryegrass, Italian plant response rating ([26]; 16 g ai/ha, 0 to 100 scale): 50 | Ryegrass, Italian plant response rating (0-100) [26, 30]: 90 | Wheat plant response rating ([27]; 16 g ai/ha, 0 to 100 scale): 40 | Wheat plant response rating (0-100) [27, 30]: 80
